Patent US20100197908A1 (Boehringer Ingelheim International GmbH, priority 2006, published 2010)
Structures can show the parent of a compound that is named as a salt.

Target: T1, hMCH-1R (Homo sapiens, UniProt Q99705)
T1 construct: expressed in transfected cells; host or cells: CHO/Galpha16 cells (stably transfected), membranes
Test: MCH-1 receptor binding test (125I-MCH binding to membranes of hMCH-1R transfected CHO/Galpha16 cells)
Conditions: membranes of CHO/Galpha16 cells stably transfected with human hMCH-1R, 100 pM 125I-MCH
Protocol: After the incubation the reaction is filtered using a cell harvester through 0.5% PEI treated fibreglass filters (GF/B, Unifilter Packard). The membrane-bound radioactivity retained on the filter is then determined after the addition of scintillator substance (Packard Microscint 20) in a measuring device (TopCount of Packard). […] The analysis of the concentration binding curve is carried out on the assumption of one receptor binding site.

T1 sequence (Q99705 whole entry): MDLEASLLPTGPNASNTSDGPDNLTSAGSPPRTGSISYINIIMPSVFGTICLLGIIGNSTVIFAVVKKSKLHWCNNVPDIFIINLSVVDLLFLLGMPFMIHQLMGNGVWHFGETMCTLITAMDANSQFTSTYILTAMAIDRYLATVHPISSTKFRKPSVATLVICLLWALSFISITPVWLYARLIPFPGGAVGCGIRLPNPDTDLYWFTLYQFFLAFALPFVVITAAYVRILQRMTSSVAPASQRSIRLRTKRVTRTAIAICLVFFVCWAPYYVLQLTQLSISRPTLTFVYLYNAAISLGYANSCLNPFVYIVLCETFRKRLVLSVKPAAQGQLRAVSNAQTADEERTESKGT

Structure (SMILES)	IC50
c1ccc(COc2ccc(CCc3ccc(CN4CCOCC4)cc3)nn2)cc1 [Example 1.1, 4-{4-[2-(6-Benzyloxy-pyridazin-3-yl)-ethyl]benzyl}-morpholine]	4 nM
c1ccc(COc2ccc(CCc3ccc(CN4CCCC4)cn3)nn2)cc1 [Example 4.1]	16 nM
c1ccc(COc2ccc(CCc3ccc(CNCc4cccnc4)cn3)nn2)cc1 [Example 4.2]	20 nM
CC1CCCCN1Cc1ccc(CCc2ccc(OCc3ccccc3)nn2)nc1 (centres unmarked) [Example 4.4]	8 nM
COCCN(C)Cc1ccc(CCc2ccc(OCc3ccc(F)cc3)nn2)cc1 [Example 10.5]	4 nM
Fc1ccccc1COc1ccc(CCc2ccc(CN3CCCC3)cc2)nn1 [Example 12.2, 3-(2-Fluoro-benzyloxy)-6-[2-(4-pyrrolidin-1-ylmethyl-phenyl)-ethyl]-pyridazine trifluoroacetate]	13 nM

Now from value to compound:

IC50	Structure (SMILES)
9 nM	COC1CCN(Cc2ccc(C(=O)Cc3ccc(OCc4ccc(F)cc4)nn3)cc2)CC1 [Example 15.1, 2-[6-(4-Fluoro-benzyloxy)-pyridazin-3-yl]-1-[4-(4-methoxy-piperidin-1-ylmethyl)-phenyl]-ethanone]
590 nM	CN(Cc1ccccc1)c1ccc(CCc2ccc(CN3CCCC3)cc2)nn1 [Example 16.2, Benzyl-methyl-{6-[2-(4-pyrrolidin-1-ylmethyl-phenyl)-ethyl]-pyridazin-3-yl}-amine]
136 nM	OC1CCN(Cc2ccc(CCc3ccc(OCC4CCCCO4)nn3)cc2)CC1 (centres unmarked) [Example 22.2, 1-(4-{2-[6-(Tetrahydro-pyran-2-ylmethoxy)-pyridazin-3-yl]-ethyl}-benzyl)-piperidin-4-ol]
19 nM	CC(=O)N1CCN(CCOc2ccc(CCc3ccc(OCc4ccccc4)nn3)nc2)CC1 [Example 29.10]
4 nM	OC1CCN(CCc2ccc(CCc3ccc(OCc4ccccc4)nn3)nc2)CC1 [Example 31.10]
